Test results published in patent publication US20060069132A1, “Azolecarboxamide herbicides” (priority 2004, published 2006).

What was measured:
large crabgrass = experiment: Test B pre-/postemergence herbicide test; assay type: in vivo, Digitaria sanguinalis; details: for Crabgrass, Large plant response rating (0 to 100 scale) / Plant response rating, Crabgrass, Large: 0 = no effect, 100 = complete control, preemergence; for Crabgrass, Large plant response rating: postemergence
In short: (§1)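 Flooded paddy rice and barnyardgrass were treated at the 2-leaf stage; upland plantings received compound either on sown seed or on 1- to 4-leaf seedlings. All were kept 13–15 days in a greenhouse and scored visually, 0–100, relative to untreated plants.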

corn = experiment: Test B pre-/postemergence herbicide test; assay type: in vivo, Zea mays; details: for Corn plant response rating (0 to 100 scale) / Plant response rating, Corn: 0 = no effect, 100 = complete control, preemergence; for Corn plant response rating: postemergence
In short: as §1

ducksalad = experiment: Test B flooded paddy test; assay type: in vivo, Heteranthera limosa; details: 1000 g ai/ha, scale 0 to 100 (0 no effect, 100 complete control)
In short: (§2)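 Greenhouse test; postemergence application to plants at 1–4 leaves (2–18 cm); paddy species at 2 leaves; evaluated visually vs controls at 13–15 days; scale 0–100 (100 = complete control).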

barnyardgrass [1] = experiment: Test B pre-/postemergence herbicide test; assay type: in vivo, Echinochloa crus-galli; details: for Barnyardgrass plant response rating (0 to 100 scale) / Plant response rating, Barnyardgrass: 0 = no effect, 100 = complete control, preemergence; for Plant response rating, Barnyardgrass / Barnyardgrass plant response rating: visual rating; for Barnyardgrass plant response rating: postemergence, scale 0 (no effect) to 100 (complete control)
In short: (§3)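 Greenhouse pot assay with simultaneous preemergence (treated seed) and postemergence (2–18 cm seedlings) applications of surfactant-containing, non-phytotoxic solvent formulations. Response scored visually 13–15 days later on a 0–100 scale, 100 meaning complete control.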

Surinam grass = experiment: Test B pre-/postemergence herbicide test; assay type: in vivo, Urochloa decumbens; details: for Surinam Grass plant response rating (0 to 100 scale) / Plant response rating, Surinam Grass: 0 = no effect, 100 = complete control, preemergence; for Surinam Grass plant response rating: postemergence
In short: as §1

velvetleaf = experiment: Test B pre-/postemergence herbicide test; assay type: in vivo, Abutilon theophrasti; details: for Velvetleaf plant response rating (0 to 100 scale) / Plant response rating, Velvetleaf: 0 = no effect, 100 = complete control, preemergence; for Velvetleaf plant response rating: postemergence
In short: as §1

pigweed = experiment: Test B pre-/postemergence herbicide test; assay type: in vivo, Amaranthus retroflexus; details: for Pigweed plant response rating (0 to 100 scale) / Plant response rating, Pigweed: 0 = no effect, 100 = complete control, preemergence; for Pigweed plant response rating: postemergence
In short: as §1

[2] = system: small flower umbrella sedge; experiment: Test B flooded paddy test; assay type: in vivo, Cyperus difformis; details: 1000 g ai/ha, scale 0 to 100 (0 no effect, 100 complete control)
In short: as §2

cocklebur = experiment: Test B pre-/postemergence herbicide test; assay type: in vivo, Xanthium strumarium; details: for Cocklebur plant response rating (0 to 100 scale) / Plant response rating, Cocklebur: 0 = no effect, 100 = complete control, preemergence; for Plant response rating, Cocklebur / Cocklebur plant response rating: visual rating; for Cocklebur plant response rating: postemergence, scale 0 (no effect) to 100 (complete control)
In short: as §3

rice [3] = experiment: Test B pre-/postemergence herbicide test; assay type: in vivo, Oryza sativa; details: 0 = no effect, 100 = complete control, preemergence; for Rice plant response rating (0 to 100 scale): 125 g ai/ha; for Plant response rating, Rice: 500 g ai/ha, visual rating
In short: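 Evaluation is visual, comparing treated with control plants on a scale where 0 means no effect and 100 means full control. Treatments were preemergence, or postemergence on seedlings 2–18 cm tall, and held 13–15 days in the greenhouse.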

blackgrass = experiment: Test B postemergence herbicide test; assay type: in vivo, Alopecurus myosuroides; details: postemergence, visual rating, scale 0 (no effect) to 100 (complete control)
In short: as §2

morningglory = experiment: Test B pre-/postemergence herbicide test; assay type: in vivo, Ipomoea coccinea; details: for Morningglory plant response rating (0 to 100 scale) / Plant response rating, Morningglory: 0 = no effect, 100 = complete control, preemergence; for Morningglory plant response rating: postemergence
In short: as §3

barnyardgrass [4] = experiment: Test B flooded paddy test; assay type: in vivo, Echinochloa crus-galli; details: 1000 g ai/ha, scale 0 to 100 (0 no effect, 100 complete control)
In short: as §2

wild oat = experiment: Test B postemergence herbicide test; assay type: in vivo, Avena fatua; details: postemergence
In short: (§4)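 Each value is a visual 0–100 response rating taken against controls 13 to 15 days after treatment in the greenhouse. Plants received formulated chemical postemergence at the 1- to 4-leaf stage or, in flooded paddy, at the 2-leaf stage.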

rice [5] = experiment: Test B flooded paddy test; assay type: in vivo, Oryza sativa; details: 1000 g ai/ha, scale 0 to 100 (0 no effect, 100 complete control)
In short: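 After treating 2-leaf paddy plants or 2–18 cm postemergence plants (1 to 4 leaves) with formulated chemical, researchers kept them in a greenhouse for 13–15 days. Effects were judged visually versus controls: 0 indicates none, 100 total control.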

lambsquarters = experiment: Test B pre-/postemergence herbicide test; assay type: in vivo, Chenopodium album; details: for Lambsquarters plant response rating: postemergence
In short: as §1

giant foxtail = experiment: Test B pre-/postemergence herbicide test; assay type: in vivo, Setaria faberi; details: for Foxtail, Giant plant response rating (0 to 100 scale) / Plant response rating, Foxtail, Giant: 0 = no effect, 100 = complete control, preemergence; for Foxtail, Giant plant response rating: postemergence
In short: as §1

wheat = experiment: Test B postemergence herbicide test; assay type: in vivo, Triticum aestivum; parameters: key to Wheat plant response rating: 0 = no effect, 100 = complete control; details: postemergence
In short: as §4

[6] = 125 g ai/ha, visual rating, scale 0 (no effect) to 100 (complete control)
[7] = 500 g ai/ha, visual rating, scale 0 (no effect) to 100 (complete control)
[8] = 125 g ai/ha, 0 = no effect, 100 = complete control, preemergence
[9] = 500 g ai/ha, scale 0 to 100, 0 is no effect, 100 is complete control

## CCc1nn(C(C)(C)C)cc1C(=O)Nc1ccc(F)c(C(=O)N(C)C)c1 [Compound 239]
Large crabgrass; 125 g ai/ha
  Crabgrass, Large plant response rating (0 to 100 scale): 0
Large crabgrass; 500 g ai/ha, visual rating
  Plant response rating, Crabgrass, Large: 100
Large crabgrass; [6]
  Crabgrass, Large plant response rating: 0
Large crabgrass; [7]
  Crabgrass, Large plant response rating: 20
corn; 125 g ai/ha
  Corn plant response rating (0 to 100 scale): 0
corn; 500 g ai/ha, visual rating
  Plant response rating, Corn: 0
corn; [6]
  Corn plant response rating: 0
corn; [7]
  Corn plant response rating: 20
ducksalad
  Ducksalad plant response rating: 0
Barnyardgrass [1]; 125 g ai/ha
  Barnyardgrass plant response rating (0 to 100 scale): 0
  Barnyardgrass plant response rating: 0
Barnyardgrass [1]; 500 g ai/ha
  Plant response rating, Barnyardgrass: 60
  Barnyardgrass plant response rating: 0
Surinam grass; 125 g ai/ha
  Surinam Grass plant response rating (0 to 100 scale): 0
Surinam grass; 500 g ai/ha, visual rating
  Plant response rating, Surinam Grass: 0
Surinam grass; [6]
  Surinam Grass plant response rating: 0
Surinam grass; [7]
  Surinam Grass plant response rating: 30
velvetleaf; 125 g ai/ha
  Velvetleaf plant response rating (0 to 100 scale): 0
velvetleaf; 500 g ai/ha, visual rating
  Plant response rating, Velvetleaf: 0
velvetleaf; [6]
  Velvetleaf plant response rating: 0
velvetleaf; [7]
  Velvetleaf plant response rating: 10
pigweed; 125 g ai/ha
  Pigweed plant response rating (0 to 100 scale): 0
pigweed; 500 g ai/ha, visual rating
  Plant response rating, Pigweed: 70
pigweed; [6]
  Pigweed plant response rating: 20
pigweed; [7]
  Pigweed plant response rating: 50
[2]
  Sedge, Umbrella plant response rating: 70
cocklebur; 125 g ai/ha
  Cocklebur plant response rating (0 to 100 scale): 0
  Cocklebur plant response rating: 0
cocklebur; 500 g ai/ha
  Plant response rating, Cocklebur: 0
  Cocklebur plant response rating: 20
Rice [3]
  Rice plant response rating (0 to 100 scale): 0
  Plant response rating, Rice: 0
blackgrass; 125 g ai/ha
  Blackgrass plant response rating: 0
blackgrass; 500 g ai/ha
  Blackgrass plant response rating: 0
morningglory; 125 g ai/ha
  Morningglory plant response rating (0 to 100 scale): 0
morningglory; 500 g ai/ha, visual rating
  Plant response rating, Morningglory: 0
morningglory; [6]
  Morningglory plant response rating: 0
morningglory; [7]
  Morningglory plant response rating: 10
Barnyardgrass [4]
  Barnyardgrass plant response rating: 0
Wild oat; [6]
  Oat, Wild plant response rating: 0
Wild oat; [7]
  Oat, Wild plant response rating: 0
Rice [5]
  Rice plant response rating: 30
lambsquarters; [8]
  Lambsquarters plant response rating (0 to 100 scale): 20
lambsquarters; 500 g ai/ha, visual rating, 0 = no effect, 100 = complete control, preemergence
  Plant response rating, Lambsquarters: 70
lambsquarters; [6]
  Lambsquarters plant response rating: 0
lambsquarters; [7]
  Lambsquarters plant response rating: 30
Giant foxtail; 125 g ai/ha
  Foxtail, Giant plant response rating (0 to 100 scale): 0
Giant foxtail; 500 g ai/ha, visual rating
  Plant response rating, Foxtail, Giant: 0
Giant foxtail; [6]
  Foxtail, Giant plant response rating: 0
Giant foxtail; [7]
  Foxtail, Giant plant response rating: 0
wheat; [6]
  Wheat plant response rating: 0
wheat; [7]
  Wheat plant response rating: 0

## CCCOC(=O)c1cc(NC(=O)c2cc(C(C)(C)C)nn2CC)c(F)cc1F [Compound 249]
Large crabgrass; 125 g ai/ha
  Crabgrass, Large plant response rating (0 to 100 scale): 0
Large crabgrass; 500 g ai/ha, visual rating
  Plant response rating, Crabgrass, Large: 0
Large crabgrass; [6]
  Crabgrass, Large plant response rating: 10
Large crabgrass; [9]
  Crabgrass, Large plant response rating: 30
corn; 125 g ai/ha
  Corn plant response rating (0 to 100 scale): 0
corn; 500 g ai/ha, visual rating
  Plant response rating, Corn: 0
corn; [6]
  Corn plant response rating: 10
corn; [9]
  Corn plant response rating: 20
ducksalad
  Ducksalad plant response rating: 0
Barnyardgrass [1]; 125 g ai/ha
  Barnyardgrass plant response rating (0 to 100 scale): 0
  Barnyardgrass plant response rating: 10
Barnyardgrass [1]; 500 g ai/ha
  Plant response rating, Barnyardgrass: 0
  Barnyardgrass plant response rating: 20
Surinam grass; 125 g ai/ha
  Surinam Grass plant response rating (0 to 100 scale): 0
Surinam grass; 500 g ai/ha, visual rating
  Plant response rating, Surinam Grass: 20
Surinam grass; [6]
  Surinam Grass plant response rating: 10
Surinam grass; [9]
  Surinam Grass plant response rating: 30
velvetleaf; 125 g ai/ha
  Velvetleaf plant response rating (0 to 100 scale): 0
velvetleaf; 500 g ai/ha, visual rating
  Plant response rating, Velvetleaf: 0
velvetleaf; [6]
  Velvetleaf plant response rating: 10
velvetleaf; [9]
  Velvetleaf plant response rating: 20
pigweed; 125 g ai/ha
  Pigweed plant response rating (0 to 100 scale): 0
pigweed; 500 g ai/ha, visual rating
  Plant response rating, Pigweed: 0
pigweed; [6]
  Pigweed plant response rating: 20
pigweed; [9]
  Pigweed plant response rating: 80
[2]
  Sedge, Umbrella plant response rating: 30
cocklebur; 125 g ai/ha
  Cocklebur plant response rating (0 to 100 scale): 0
  Cocklebur plant response rating: 30
cocklebur; 500 g ai/ha
  Plant response rating, Cocklebur: 0
  Cocklebur plant response rating: 30
Rice [3]
  Rice plant response rating (0 to 100 scale): 0
  Plant response rating, Rice: 0
blackgrass; 125 g ai/ha
  Blackgrass plant response rating: 20
blackgrass; 500 g ai/ha
  Blackgrass plant response rating: 30
morningglory; 125 g ai/ha
  Morningglory plant response rating (0 to 100 scale): 0
morningglory; 500 g ai/ha, visual rating
  Plant response rating, Morningglory: 10
morningglory; [6]
  Morningglory plant response rating: 20
morningglory; [9]
  Morningglory plant response rating: 30
Barnyardgrass [4]
  Barnyardgrass plant response rating: 0
Wild oat; [6]
  Oat, Wild plant response rating: 30
Wild oat; [9]
  Oat, Wild plant response rating: 40
Rice [5]
  Rice plant response rating: 0
lambsquarters; [8]
  Lambsquarters plant response rating (0 to 100 scale): 0
lambsquarters; [6]
  Lambsquarters plant response rating: 10
lambsquarters; [9]
  Lambsquarters plant response rating: 20
Giant foxtail; 125 g ai/ha
  Foxtail, Giant plant response rating (0 to 100 scale): 0
Giant foxtail; 500 g ai/ha, visual rating
  Plant response rating, Foxtail, Giant: 0
Giant foxtail; [6]
  Foxtail, Giant plant response rating: 20
Giant foxtail; [9]
  Foxtail, Giant plant response rating: 30
wheat; [6]
  Wheat plant response rating: 30
wheat; [9]
  Wheat plant response rating: 30
